The record followed here is BindingDB's records for doi:10.7270/Q22R3Q30 (Nmmlsc, 2009).

Structures are written as SMILES.

This assay deals with Cell division control protein 42 homolog (Homo sapiens, UniProt P60953). The experiment in a line: Cdc42 activated mutant GTP-binding inhibitors, SAR follow-up, biochemical, bead-based multiplex flow cytometry, additional SAR set (AID 2021). A general note: In flow cytometry, cells or beads pass a laser one at a time.

Broadly, the Ki is a measure of affinity in units of concentration, obtained from inhibition or displacement. Read a low Ki as a stronger hold on the target.

Chain of Cell division control protein 42 homolog (P60953 whole entry): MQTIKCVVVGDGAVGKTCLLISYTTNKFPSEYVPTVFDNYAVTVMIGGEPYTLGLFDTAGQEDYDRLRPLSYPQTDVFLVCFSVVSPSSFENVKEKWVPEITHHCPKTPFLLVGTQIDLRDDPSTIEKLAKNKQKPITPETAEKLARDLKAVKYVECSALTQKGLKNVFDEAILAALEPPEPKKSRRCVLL

In turn, `O=C1NC(=O)/C(=C2/C(=O)Nc3ccccc32)N1` displayed a Ki of 0.81 µM. This lies in the sub-micromolar range.

`O=C1N=c2c(Br)cccc2=C1c1[nH]c2ccccc2c1NO` [7-bromanyl-3-[3-(oxidanylamino)-1H-indol-2-yl]indol-2-one] yielded a Ki of 8.52 µM.
